Biological target: T1, recombinant guanylate cyclase reporter cell line (Rattus norvegicus, UniProt P19686+P20595)
T1 construct: expressed in transfected cells
T1 sequence (P20595 1-619): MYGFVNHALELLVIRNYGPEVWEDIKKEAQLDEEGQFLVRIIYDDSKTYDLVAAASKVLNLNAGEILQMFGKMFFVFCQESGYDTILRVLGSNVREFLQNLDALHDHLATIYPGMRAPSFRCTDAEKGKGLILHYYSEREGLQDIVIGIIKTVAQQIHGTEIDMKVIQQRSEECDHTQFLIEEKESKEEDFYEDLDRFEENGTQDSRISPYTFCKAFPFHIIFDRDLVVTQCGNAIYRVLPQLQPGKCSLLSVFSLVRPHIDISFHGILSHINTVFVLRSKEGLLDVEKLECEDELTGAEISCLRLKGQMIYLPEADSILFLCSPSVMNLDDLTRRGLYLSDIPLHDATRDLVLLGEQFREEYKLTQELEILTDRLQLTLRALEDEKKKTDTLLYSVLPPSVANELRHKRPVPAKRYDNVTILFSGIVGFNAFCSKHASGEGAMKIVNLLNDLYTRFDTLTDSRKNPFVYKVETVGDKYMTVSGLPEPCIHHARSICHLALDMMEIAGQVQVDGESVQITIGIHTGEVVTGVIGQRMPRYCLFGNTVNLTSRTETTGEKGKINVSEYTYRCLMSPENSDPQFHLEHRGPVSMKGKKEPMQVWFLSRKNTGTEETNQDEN
T1 sequence (P19686 1-690): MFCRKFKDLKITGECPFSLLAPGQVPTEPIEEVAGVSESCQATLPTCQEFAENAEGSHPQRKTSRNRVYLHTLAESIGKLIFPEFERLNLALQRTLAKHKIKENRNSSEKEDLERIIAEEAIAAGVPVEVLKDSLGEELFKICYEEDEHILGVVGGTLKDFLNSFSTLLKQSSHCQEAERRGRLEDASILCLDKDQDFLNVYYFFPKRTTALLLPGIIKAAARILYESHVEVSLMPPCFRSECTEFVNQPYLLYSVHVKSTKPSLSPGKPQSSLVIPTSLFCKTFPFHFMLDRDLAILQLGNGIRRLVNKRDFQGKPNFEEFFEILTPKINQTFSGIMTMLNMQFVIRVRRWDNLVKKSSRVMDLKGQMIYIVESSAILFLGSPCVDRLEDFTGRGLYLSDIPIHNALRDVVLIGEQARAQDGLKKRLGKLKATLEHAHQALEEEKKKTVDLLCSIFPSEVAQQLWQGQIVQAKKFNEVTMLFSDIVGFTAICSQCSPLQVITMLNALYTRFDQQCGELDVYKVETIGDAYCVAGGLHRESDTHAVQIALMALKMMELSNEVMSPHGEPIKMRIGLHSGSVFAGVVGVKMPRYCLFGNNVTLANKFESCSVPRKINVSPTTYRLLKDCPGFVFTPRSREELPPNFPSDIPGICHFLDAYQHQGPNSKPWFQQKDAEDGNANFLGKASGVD
Assay: Effect on a recombinant guanylate cyclase reporter cell line (B-2)
Assay type: cell-based
Settings: MEC = minimum effective concentration; in some cases mean values from individual determinations
Protocol: B-2. Effect on a Recombinant Guanylate Cyclase Reporter Cell Line
The cellular activity of the compounds according to the invention is determined using a recombinant guanylate cyclase reporter cell line, as described in F. Wunder et al., Anal. Biochem. 339, 104-112 (2005).
Representative MEC values (MEC=minimum effective concentration) for the compounds of the invention are shown in the table below (in some cases as mean values from individual determinations): […]

SMILES	MEC
Cc1cc(OCc2c(F)ccc(F)c2F)c2nc(C)c(C(=O)NC(C#N)c3ccc(Cl)cc3)n2c1 (racemic) [Example 17, rac-N-[(4-Chlorophenyl)(cyano)methyl]-2,6-dimethyl-8-[(2,3,6-trifluorobenzyl)oxy]imidazo[1,2-a]pyridine-3-carboxamide]	0.3 µM
CCc1nc2c(OCc3c(F)cccc3F)cc(C)cn2c1C(=O)NC(C#N)c1ccc(Cl)cc1 (racemic) [Example 27, rac-N-[(4-chlorophenyl)(cyano)methyl]-8-[(2,6-difluorobenzyl)oxy]-2-ethyl-6-methylimidazo[1,2-a]pyridine-3-carboxamide]	0.3 µM
Cc1cc(OCCC(C(F)(F)F)C(F)(F)F)c2nc(C)c(C(=O)NC(C#N)c3ccc(Cl)cc3)n2c1 (racemic) [Example 23, rac-N-[(4-chlorophenyl)(cyano)methyl]-2,6-dimethyl-8-[4,4,4-trifluoro-3-(trifluoromethyl)butoxy]imidazo[1,2-a]pyridine-3-carboxamide]	3 µM
Cc1cc(OC(C)c2c(F)cccc2F)c2nc(C)c(C(=O)NC(C#N)c3ccc(Cl)cc3)n2c1 (stereo not drawn) [Example 26, N-[(4-chlorophenyl)(cyano)methyl]-8-[1-(2,6-difluorophenyl)ethoxy]-2,6-dimethylimidazo[1,2-a]pyridine-3-carboxamide]	10 µM
Cc1cc(OCc2c(F)cccc2F)c2nc(C)c(C(=O)NC3CCCCC3C#N)n2c1 (stereo not drawn) [Example 11, N-(2-cyanocyclohexyl)-8-[(2,6-difluorobenzyl)oxy]-2,6-dimethylimidazo[1,2-a]pyridine-3-carboxamide]	0.3 µM
Cc1cc(OCc2c(F)cccc2F)c2nc(C)c(C(=O)NCC3CCC(C#N)CC3)n2c1 (stereo not drawn) [Example 12, N-[(4-cyanocyclohexyl)methyl]-8-[(2,6-difluorobenzyl)oxy]-2,6-dimethylimidazo[1,2-a]pyridine-3-carboxamide]	0.1 µM
Cc1nc2c(OCc3ncccc3F)cccn2c1C(=O)NC(C#N)c1ccc(Cl)cc1 (racemic) [Example 21, rac-N-[(4-chlorophenyl)(cyano)methyl]-8-[(3-fluoropyridin-2-yl)methoxy]-2-methylimidazo[1,2-a]pyridine-3-carboxamide]	10 µM
Cc1cc(OCc2c(F)cccc2F)c2nc(C)c(C(=O)NC(C)C#N)n2c1 (single isomer, unassigned) [Example 15, ent-N-(1-Cyanoethyl)-8-[(2,6-difluorobenzyl)oxy]-2,6-dimethylimidazo[1,2-a]pyridine-3-carboxamide]	0.3 µM
COc1cc(OCc2c(F)cccc2F)c2nc(C)c(C(=O)NC(C#N)c3ccc(Cl)cc3)n2c1 (racemic) [Example 28, rac-N-[(4-chlorophenyl)(cyano)methyl]-8-[(2,6-difluorobenzyl)oxy]-6-methoxy-2-methylimidazo[1,2-a]pyridine-3-carboxamide]	1 µM
N#CC(NC(=O)c1cnc2c(OCc3c(F)cccc3F)cccn12)c1ccc(Cl)cc1 (racemic) [Example 18, rac-N-[(4-chlorophenyl)(cyano)methyl]-8-[(2,6-difluorobenzyl)oxy]imidazo[1,2-a]pyridine-3-carboxamide]	10 µM
Cc1cc(OCc2ncccc2F)c2nc(C)c(C(=O)NC(C#N)c3ccc(Cl)cc3)n2c1 (racemic) [Example 19, rac-N-[(4-chlorophenyl)(cyano)methyl]-8-[(3-fluoropyridin-2-yl)methoxy]-2,6-dimethylimidazo[1,2-a]pyridine-3-carboxamide]	1 µM
Cc1nc2c(OCC3CCCCC3)cccn2c1C(=O)NC(C#N)c1ccc(Cl)cc1 (racemic) [Example 20, rac-N-[(4-chlorophenyl)(cyano)methyl]-8-(cyclohexylmethoxy)-2-methylimidazo[1,2-a]pyridine-3-carboxamide]	1 µM

Continued, values first:

MEC	SMILES
1 µM	Cc1cc(OCc2c(F)cccc2F)c2nc(C)c(C(=O)NC(C#N)C(N)=O)n2c1 (racemic) [Example 34, rac-N-(2-amino-1-cyan-2-oxoethyl)-8-[(2,6-difluorobenzyl)oxy]-2,6-dimethylimidazo[1,2-a]pyridine-3-carboxamide]
3 µM	Cc1cc(OCc2c(F)ccc(C3CC3)c2F)c2nc(C)c(C(=O)NCC3CCC(C#N)CC3)n2c1 (stereo not drawn) [Example 40, N-[(4-Cyanocyclohexyl)methyl]-8-[(3-cyclopropyl-2,6-difluorobenzyl)oxy]-2,6-dimethylimidazo[1,2-a]pyridine-3-carboxamide]
1 µM	Cc1cc(OCc2c(F)cccc2F)c2nc(C)c(C(=O)NCC(N)CCCC#N)n2c1 (single isomer, unassigned) [Example 47, ent-N-(2-Amino-5-cyanopentyl)-8-[(2,6-difluorobenzyl)oxy]-2,6-dimethylimidazo[1,2-a]pyridine-3-carboxamide]
0.3 µM	Cc1cc(OCc2c(F)cccc2F)c2nc(C)c(C(=O)Nc3ccccc3CC#N)n2c1 [Example 35, N-[2-(cyanomethyl)phenyl]-8-[(2,6-difluorobenzyl)oxy]-2,6-dimethylimidazo[1,2-a]pyridine-3-carboxamide]
10 µM	Cc1cc(OCC2CC(F)(F)C2)c2nc(C)c(C(=O)NC(C#N)c3ccc(Cl)cc3)n2c1 (racemic) [Example 31, rac-N-[(4-chlorophenyl)(cyano)methyl]-8-[(3,3-difluorocyclobutyl)methoxy]-2,6-dimethylimidazo[1,2-a]pyridine-3-carboxamide]
1 µM	Cc1cc(OCc2c(F)cccc2F)c2nc(C)c(C(=O)NCC(N)CC#N)n2c1 (single isomer, unassigned) [Example 43, ent-N-(2-Amino-3-cyanopropyl)-8-[(2,6-difluorobenzyl)oxy]-2,6-dimethylimidazo[1,2-a]pyridine-3-carboxamide]

— patent US9771360B2, “Cyano-substituted imidazo[1,2-A]pyridinecarboxamides and their use” (Bayer Pharma Aktiengesellschaft, priority 2014, dated 2017)
